Experimental data reported in ChEMBL document CHEMBL6096723, “Discovery of novel capsaicin analogs as TRPV1 inhibitors for the treatment of idiopathic pulmonary fibrosis” (Eur J Med Chem, 2025).
The source made the active and inactive calls. The rule behind the calls is not given here.

Tests used:
[1] = VRT(0 to t) in Sprague-Dawley rat at 50 mg/kg, po measured upto 4 hrs by UPLC-MS/MS analysis; type: ADME, organism-based; conditions: in vivo
[2] = Acute toxicity in Kunming female mouse assessed as Creatine kinase (CK) level at 180 mg/kg, ip measured after 14 days (reference value: 779.7 U/L); type: organism-based; conditions: in vivo, 336 h, time 14 day
[3] = Acute toxicity in Kunming female mouse assessed as Urea level at 180 mg/kg, ip measured after 14 days (reference value: 5.74 mmol/L); type: organism-based; conditions: in vivo, 336 h, time 14 day
[4] = AUC(0 to infinity) in Sprague-Dawley rat at 50 mg/kg, ip measured upto 4 hrs by UPLC-MS/MS analysis; type: ADME, organism-based; conditions: in vivo
[5] = Cytotoxicity against mouse NIH3T3 cells assessed as survival rate at 10 uM measured after 24 hrs by CCK-8 assay relative to control; type: toxicity, cell-based; conditions: read-out: Survival
[6] = VRT(0 to infinity) in Sprague-Dawley rat at 50 mg/kg, ip measured upto 4 hrs by UPLC-MS/MS analysis; type: ADME, organism-based; conditions: in vivo
[7] = MRT(0 to infinity) in Sprague-Dawley rat at 50 mg/kg, po measured upto 4 hrs by UPLC-MS/MS analysis; type: ADME, organism-based; conditions: in vivo
[8] = MRT(0 to infinity) in Sprague-Dawley rat at 50 mg/kg, ip measured upto 4 hrs by UPLC-MS/MS analysis; type: ADME, organism-based; conditions: in vivo
[9] = Apparent volume of distribution in Sprague-Dawley rat at 50 mg/kg, iv measured upto 4 hrs by UPLC-MS/MS analysis; type: ADME, organism-based; conditions: in vivo, read-out: Vz
[10] = Acute toxicity in Kunming female mouse assessed as Albumin (ALB) level at 180 mg/kg, ip measured after 14 days (reference value: 35.8 g/L); type: organism-based; conditions: in vivo, 336 h, time 14 day
[11] = target: Transient receptor potential cation channel subfamily V member 1 (Homo sapiens) (UniProt Q8NER1); assay: Inhibition of TRPV1 (unknown origin) overexpressed in HEK-293T cells assessed as decrease in TGFbeta-induced alpha-SMA expression at 10 uM measured after 48 hrs incubation by Western blotting analysis; type: cell-based
[12] = AUMC(0 to t) in Sprague-Dawley rat at 50 mg/kg, ip measured upto 4 hrs by UPLC-MS/MS analysis; type: ADME, organism-based; conditions: in vivo
[13] = MRT(0 to t) in Sprague-Dawley rat at 50 mg/kg, ip measured upto 4 hrs by UPLC-MS/MS analysis; type: ADME, organism-based; conditions: in vivo
NIH3T3 [14] = assay: Antifibrotic activity in mouse NIH3T3 cells assessed as decrease in TGFbeta-induced alpha-SMA expression measured after 48 hrs incubation by Western blotting analysis; type: functional, cell-based; conditions: dose 1-10 µM
[15] = AUMC(0 to infinity) in Sprague-Dawley rat at 50 mg/kg, iv measured upto 4 hrs by UPLC-MS/MS analysis; type: ADME, organism-based; conditions: in vivo
[16] = Tmax in Sprague-Dawley rat at 50 mg/kg, ip measured upto 4 hrs by UPLC-MS/MS analysis; type: ADME, organism-based; conditions: in vivo
[17] = Clearance in Sprague-Dawley rat at 50 mg/kg, po measured upto 4 hrs by UPLC-MS/MS analysis; type: ADME, organism-based; conditions: in vivo
[18] = MRT(0 to t) in Sprague-Dawley rat at 50 mg/kg, iv measured upto 4 hrs by UPLC-MS/MS analysis; type: ADME, organism-based; conditions: in vivo
Rattus norvegicus = assay: Cz in Sprague-Dawley rat at 50 mg/kg, ip measured upto 4 hrs by UPLC-MS/MS analysis; type: ADME, organism-based; conditions: in vivo
[19] = AUMC(0 to t) in Sprague-Dawley rat at 50 mg/kg, iv measured upto 4 hrs by UPLC-MS/MS analysis; type: ADME, organism-based; conditions: in vivo
[20] = Acute toxicity in Kunming female mouse assessed as Creatinine (CREA) level at 180 mg/kg, ip measured after 14 days (reference value: 15.4 micromol/L); type: organism-based; conditions: in vivo, 336 h, time 14 day
Mus musculus = assay: Anti-pulmonary fibrotic activity against bleomycin-induced pulmonary fibrosis mouse model assessed as reduction in BLM-induced […] expression in lung tissue at 10 to 20 mg/kg, ip administered every alternative day for 8 to 21 days after modeling; type: functional, organism-based; conditions: dose 10-20 mg/kg, time 8-21 day
[21] = Tmax in Sprague-Dawley rat at 50 mg/kg, po measured upto 4 hrs by UPLC-MS/MS analysis; type: ADME, organism-based; conditions: in vivo
[22] = Bioavailability in Sprague-Dawley rat at 50 mg/kg, ip measured upto 4 hrs by UPLC-MS/MS analysis; type: ADME, organism-based; conditions: in vivo
NIH3T3 [23] = assay: Antifibrotic activity in mouse NIH3T3 cells assessed as decrease in TGFbeta-induced Collagen type 1 expression measured after 48 hrs incubation by Western blotting analysis; type: functional, cell-based; conditions: dose 1-10 µM

Transient receptor potential cation channel subfamily V member 1 (Homo sapiens), sequence (Q8NER1 whole entry): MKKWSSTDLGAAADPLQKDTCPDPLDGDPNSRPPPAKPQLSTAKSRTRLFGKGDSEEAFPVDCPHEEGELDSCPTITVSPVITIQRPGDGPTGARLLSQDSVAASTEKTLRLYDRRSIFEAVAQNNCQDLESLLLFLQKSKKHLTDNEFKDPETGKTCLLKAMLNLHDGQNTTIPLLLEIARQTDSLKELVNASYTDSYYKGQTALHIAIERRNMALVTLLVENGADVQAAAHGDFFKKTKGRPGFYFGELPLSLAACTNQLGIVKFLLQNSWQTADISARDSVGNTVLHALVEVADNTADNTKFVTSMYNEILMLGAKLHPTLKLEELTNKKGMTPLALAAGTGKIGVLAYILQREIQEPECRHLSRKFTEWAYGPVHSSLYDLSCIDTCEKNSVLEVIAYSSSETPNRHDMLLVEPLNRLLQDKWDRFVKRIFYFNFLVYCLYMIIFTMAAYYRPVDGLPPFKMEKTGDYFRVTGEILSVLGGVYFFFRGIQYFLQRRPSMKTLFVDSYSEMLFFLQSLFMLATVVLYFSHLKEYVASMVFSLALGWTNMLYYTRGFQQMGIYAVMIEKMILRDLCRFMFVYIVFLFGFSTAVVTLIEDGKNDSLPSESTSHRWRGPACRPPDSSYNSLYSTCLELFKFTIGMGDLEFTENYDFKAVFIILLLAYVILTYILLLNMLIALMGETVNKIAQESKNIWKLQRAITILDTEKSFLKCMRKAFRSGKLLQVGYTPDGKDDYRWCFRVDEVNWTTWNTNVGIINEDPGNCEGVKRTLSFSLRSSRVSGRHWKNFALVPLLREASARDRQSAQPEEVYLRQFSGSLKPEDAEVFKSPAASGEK

SMILES: O=C(/C=C/c1ccc(O)c(O)c1)CCCCc1ccccc1
- VRT(t) [1]: 0.75 hr2
- Activity [2]: 1115.7 U/L
- Activity [3]: 6.51 mmol/L
- AUC [4]: 1095.38 ng·h/mL
- viability at 24 h, 10 µM [5]: 99.2%
- VRT [6]: 0.72 hr2
- MRT inf [7]: 81 min
- MRT inf [8]: 34.2 min
- Vd [9]: 7.17 L/kg
- Activity [10]: 33.2 g/L
- inhibition [11]: Active
- AUMCt [12]: 568.11 ug/L.hr
- MRT last at 4 h [13]: 31.2 min
- Activity (NIH3T3 [14]): Dose-dependent-effect; Compound More Potent Than Nintedanib
- AUMC [15]: 2122.825 ug/L.hr
- Tmax [16]: 10.2 min
- CL [17]: 197.26 L/h/kg
- MRT last at 4 h [18]: 44.6 min
- Cz (Rattus norvegicus): 0.74 µg/L
- AUMCt [19]: 1969.254 ug/L.hr
- Activity [20]: 16.7 µmol/L
- Activity (Mus musculus): Active
- Tmax [21]: 10.2 min
- bioavailability [22]: 29.6%
- Activity (NIH3T3 [23]): Dose-dependent-effect; Compound More Potent Than Nintedanib
